Experimental data taken from patent US20070032443A1, “Therapy for Alzheimer's disease” (priority 2005, published 2007).

Test system: HEK293 cells
Test: Viability of HEK293 cells in culture with test compound
Format: cell-based, human
Parameters: key: ns: results are not shown due to poor viability of HEK293 cells in culture at the indicated compound concentration
Settings: 10^−3 dilution of working concentration of Table 4 (D 0.1 millimolar); 6 days of culture

O=P(O)(O)C(O)(Cn1ccnc1)P(=O)(O)O [Compound D, zolendronic acid]
Viability of HEK293 cells in culture: ns^2
